What was measured:
wheat = experiment: Test B pre/postemergence wheat; format: in vivo, Triticum aestivum
In short: (§1)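 Response is a visual 0-to-10 score relative to untreated plants, where 0 means no effect and 10 means complete control, taken twelve to sixteen days after application. Treatments went onto soil at planting and onto foliage of 1- to 4-leaf plants, using a surfactant-containing non-phytotoxic solvent.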

pigweed = experiment: Test B pre/postemergence pigweed; format: in vivo, Amaranthus retroflexus
In short: as §1

bedstraw = experiment: Test B pre/postemergence bedstraw; format: in vivo, Galium aparine
In short: as §1

crabgrass = experiment: Test B pre/postemergence crabgrass; format: in vivo, Digitaria sanguinalis
In short: as §1

velvetleaf = experiment: Test B pre/postemergence velvetleaf; format: in vivo, Abutilon theophrasti
In short: as §1

rape = experiment: Test B pre/postemergence rape; format: in vivo, Brassica napus
In short: as §1

morningglory = experiment: Test B pre/postemergence morningglory; format: in vivo, Ipomoea hederacea
In short: as §1

wild oat = experiment: Test B pre/postemergence wild oat; format: in vivo, Avena fatua
In short: as §1

corn = experiment: Test B pre/postemergence corn; format: in vivo, Zea mays
In short: as §1

surinam grass = experiment: Test B pre/postemergence surinam grass; format: in vivo, Brachiaria decumbens
In short: as §1

blackgrass = experiment: Test B pre/postemergence blackgrass; format: in vivo, Alopecurus myosuroides
In short: as §1

soybean = experiment: Test B pre/postemergence soybean; format: in vivo, Glycine max
In short: as §1

giant foxtail = experiment: Test B pre/postemergence giant foxtail; format: in vivo, Setaria faberii
In short: as §1

sugar beet = experiment: Test B pre/postemergence sugar beet; format: in vivo, Beta vulgaris
In short: as §1

purple nutsedge = experiment: Test B pre/postemergence purple nutsedge; format: in vivo, Cyperus rotundus
In short: as §1

cocklebur = experiment: Test B pre/postemergence cocklebur; format: in vivo, Xanthium strumarium
In short: as §1

[1] = Postemergence, Rate 62 g/ha, scale 0 to 10, 0 is no effect, 10 is complete control
[2] = Postemergence, Rate 500 g/ha, scale 0 (no effect) to 10 (complete control)
[3] = Rate 62 g/ha, Preemergence, scale 0 to 10
[4] = Rate 125 g/ha, Preemergence, scale 0 to 10 (0 no effect, 10 complete control)
[5] = Rate 250 g/ha, Postemergence, scale 0 to 10, 0 is no effect, 10 is complete control
[6] = Rate 500 g/ha, Preemergence, scale 0 to 10 (0 no effect, 10 complete control)
[7] = Postemergence, Rate 125 g/ha, scale of 0 to 10 where 0 is no effect and 10 is complete control
[8] = Preemergence, Rate 250 g/ha, scale 0 (no effect) to 10 (complete control)

Structure (SMILES): COc1ccc(N(C(=O)n2oc(=O)n(C(C)C)c2=O)C(C)C)cc1 [Compound 780]
- Plant response rating, Wheat (wheat; [1]): 0
- Wheat plant response rating (wheat; [2]): 2
- Wheat plant response rating (wheat; [3]): 0
- Wheat plant response rating (wheat; [4]): 6
- Wheat plant response rating (wheat; [5]): 0
- Wheat plant response rating (wheat; [6]): 9
- Plant response rating, Redroot pigweed (pigweed; [1]): 0
- Redroot pigweed plant response rating (pigweed; [7]): 0
- Redroot pigweed plant response rating (pigweed; [2]): 0
- Redroot pigweed plant response rating (pigweed; [3]): 0
- Redroot pigweed plant response rating (pigweed; [4]): 3
- Redroot pigweed plant response rating (pigweed; [5]): 0
- Redroot pigweed plant response rating (pigweed; [6]): 6
- Plant response rating, Bedstraw (bedstraw; [1]): 0
- Bedstraw plant response rating (bedstraw; [7]): 0
- Bedstraw plant response rating (bedstraw; [8]): 0
- Bedstraw plant response rating (bedstraw; [3]): 0
- Bedstraw plant response rating (bedstraw; [4]): 0
- Bedstraw plant response rating (bedstraw; [6]): 2
- Plant response rating, Crabgrass (crabgrass; [1]): 3
- Crabgrass plant response rating (crabgrass; [7]): 4
- Crabgrass plant response rating (crabgrass; [2]): 7
- Crabgrass plant response rating (crabgrass; [8]): 10
- Crabgrass plant response rating (crabgrass; [3]): 10
- Crabgrass plant response rating (crabgrass; [4]): 10
- Crabgrass plant response rating (crabgrass; [5]): 7
- Crabgrass plant response rating (crabgrass; [6]): 10
- Plant response rating, Velvetleaf (velvetleaf; [1]): 0
- Velvetleaf plant response rating (velvetleaf; [2]): 4
- Velvetleaf plant response rating (velvetleaf; [3]): 0
- Velvetleaf plant response rating (velvetleaf; [4]): 3
- Velvetleaf plant response rating (velvetleaf; [5]): 4
- Velvetleaf plant response rating (velvetleaf; [6]): 5
- Plant response rating, Rape (rape; [1]): 0
- Rape plant response rating (rape; [7]): 0
- Rape plant response rating (rape; [2]): 0
- Rape plant response rating (rape; [3]): 0
- Rape plant response rating (rape; [4]): 0
- Rape plant response rating (rape; [5]): 0
- Rape plant response rating (rape; [6]): 6
- Plant response rating, Morningglory (morningglory; [1]): 4
- Morningglory plant response rating (morningglory; [7]): 4
- Morningglory plant response rating (morningglory; [2]): 8
- Morningglory plant response rating (morningglory; [3]): 0
- Morningglory plant response rating (morningglory; [4]): 0
- Morningglory plant response rating (morningglory; [5]): 7
- Morningglory plant response rating (morningglory; [6]): 2
- Plant response rating, Wild oats (wild oat; [1]): 0
- Wild oats plant response rating (wild oat; [2]): 2
- Wild oats plant response rating (wild oat; [3]): 0
- Wild oats plant response rating (wild oat; [4]): 0
- Wild oats plant response rating (wild oat; [5]): 2
- Wild oats plant response rating (wild oat; [6]): 9
- Plant response rating, Corn (corn; [1]): 0
- Corn plant response rating (corn; [7]): 0
- Corn plant response rating (corn; [2]): 6
- Corn plant response rating (corn; [8]): 6
- Corn plant response rating (corn; [3]): 2
- Corn plant response rating (corn; [4]): 2
- Corn plant response rating (corn; [5]): 3
- Corn plant response rating (corn; [6]): 9
- Plant response rating, B. signalgrass (surinam grass; [1]): 0
- B. signalgrass plant response rating (surinam grass; [7]): 5
- B. signalgrass plant response rating (surinam grass; [8]): 8
- B. signalgrass plant response rating (surinam grass; Rate 62 g/ha, Preemergence, scale 0 (no effect) to 10 (complete control)): 6
- B. signalgrass plant response rating (surinam grass; [4]): 6
- B. signalgrass plant response rating (surinam grass; [5]): 5
- B. signalgrass plant response rating (surinam grass; Rate 500 g/ha, Postemergence, scale 0 to 10, 0 is no effect, 10 is complete control): 5
- B. signalgrass plant response rating (surinam grass; [6]): 4
- Plant response rating, Blackgrass (blackgrass; [1]): 0
- Blackgrass plant response rating (blackgrass; [7]): 2
- Blackgrass plant response rating (blackgrass; [2]): 4
- Blackgrass plant response rating (blackgrass; [8]): 9
- Blackgrass plant response rating (blackgrass; [3]): 2
- Blackgrass plant response rating (blackgrass; [4]): 6
- Blackgrass plant response rating (blackgrass; [5]): 4
- Blackgrass plant response rating (blackgrass; [6]): 9
- Plant response rating, Soybean (soybean; [1]): 3
- Soybean plant response rating (soybean; [2]): 4
- Soybean plant response rating (soybean; [3]): 0
- Soybean plant response rating (soybean; [4]): 0
- Soybean plant response rating (soybean; [5]): 0
- Soybean plant response rating (soybean; [6]): 3
- Plant response rating, Giant foxtail (giant foxtail; [1]): 7
- Giant foxtail plant response rating (giant foxtail; [7]): 8
- Giant foxtail plant response rating (giant foxtail; [2]): 9
- Giant foxtail plant response rating (giant foxtail; [8]): 10
- Giant foxtail plant response rating (giant foxtail; [3]): 10
- Giant foxtail plant response rating (giant foxtail; [4]): 10
- Giant foxtail plant response rating (giant foxtail; [5]): 9
- Giant foxtail plant response rating (giant foxtail; [6]): 10
- Plant response rating, Sugarbeets (sugar beet; [1]): 0
- Sugarbeets plant response rating (sugar beet; [2]): 0
- Sugarbeets plant response rating (sugar beet; [3]): 2
- Sugarbeets plant response rating (sugar beet; [4]): 2
- Sugarbeets plant response rating (sugar beet; [5]): 0
- Sugarbeets plant response rating (sugar beet; [6]): 6
- Plant response rating, Nutsedge (purple nutsedge; [1]): 0
- Nutsedge plant response rating (purple nutsedge; [7]): 0
- Nutsedge plant response rating (purple nutsedge; [2]): 4
- Nutsedge plant response rating (purple nutsedge; [3]): 0
- Nutsedge plant response rating (purple nutsedge; [4]): 0
- Nutsedge plant response rating (purple nutsedge; [5]): 4
- Plant response rating, Cocklebur (cocklebur; [1]): 0
- Cocklebur plant response rating (cocklebur; [7]): 0
- Cocklebur plant response rating (cocklebur; [2]): 0
- Cocklebur plant response rating (cocklebur; [8]): 2
- Cocklebur plant response rating (cocklebur; [3]): 0
- Cocklebur plant response rating (cocklebur; [4]): 0
- Cocklebur plant response rating (cocklebur; [5]): 0
- Cocklebur plant response rating (cocklebur; [6]): 2

From US6737383B1, “Herbicidal oxadiazolidines” (priority 1999, dated 2004)
